Data published in patent US20130040908A1, “SUBSTITUTION DERIVATIVES OF N6-BENZYLADENOSINE-5' -MONOPHOSPHATE, METHODS OF PREPARATION THEREOF, USE THEREOF AS MEDICAMENTS, AND THERAPEUTIC PREPARATIONS CONTAINING THESE COMPOUNDS” (BIOAPEX, S.R.O., priority 2010, published 2013).

Columns and labels:
Human lymphocytes = test: Immunosuppressive activity, 3H-thymidine incorporation in concanavalin A activated lymphocytes; type: cell-based; details: 72 hours, [3H]-TdR
Description: One of the most important parameters of specific cellular immunity is the proliferative response of lymphocytes to antigens or polyclonal mitogens. The majority of normal mammalian peripheral lymphocytes comprise resting cells. Antigens or nonspecific polyclonal mitogens have the capacity to activate lymphoid cells and this is accompanied by dramatic changes of intracellular metabolism (mitochondrial activity, protein synthesis, nucleic acids synthesis, formation of blastic cells and cellular proliferation). […] Variety of in vitro assays was developed to measure proliferative response of lymphocytes. The most commonly used is ^3H-thymidine incorporation method.
During cell proliferation, DNA has to be replicated before the cell is divided into two daughter cells. This close association between cell doublings and DNA synthesis is very attractive for assessing cell proliferation. If labelled DNA precursors are added to the cell culture, cells that are about to divide incorporate the labelled nucleotide into their DNA. Traditionally, those assays usually involve the use of radiolabelled nucleosides, particularly tritiated thymidine ([^3H]-TdR). The amount of [^3H]-TdR incorporated into the cellular DNA is quantified by liquid scintillation counting. Human heparinized peripheral blood was obtained from healthy volunteers by cubital vein punction. The blood was diluted in PBS (1:3) and mononuclear cells were separated by centrifugation in Ficoll-Hypaque density gradient (Pharmacia, 1.077 g/ml) at 2200 rpm for 30 minutes. Following centrifugation, lymphocytes were washed in PBS and resuspended in cell culture medium (RMPI 1640, 2 mM glutamine, 100 U/ml penicillin, 100 μg/ml streptomycin, 10% fetal calf serum and sodium bicarbonate).
The cells were diluted at target density of 1.100.000 cells/ml and were added by pipette (180 μl) into 96-well microtiter plates. Four-fold dilutions of the intended test concentration were added at time zero in 20 μl aliquots to the microtiter plate wells. Usually, test compound was evaluated at six 4-fold dilutions. In routine testing, the highest well concentration was 266.7 μM. All drug concentrations were examined in duplicates. All wells with exception of unstimulated controls were activated with 50 of concanavalin A (25 μg/ml). Incubations of cells with test compounds lasted for 72 hours at 37° C., in 5% CO2 atmosphere and 100% humidity. At the end of incubation period, the cells were assayed by using the [^3H]-TdR:
Cell cultures were incubated with 0.5 μCi (20 μl of stock solution 500 μCi/ml per well for 6 hours at 37° C. and 5% CO2. The automated cell harvester was used to lyse cells in water and adsorb the DNA onto glass-fiber filters in the format of microtiter plate. The DNA incorporated [^3H]-TdR was retained on the filter while unincorporated material passes through. The filters were dried at room temperature overnight, sealed into a sample bag with 10-12 ml of scintillant. The amount of [^3H]-TdR present in each filter (in cpm) was determined by scintillation counting in a Betaplate liquid scintillation counter. The effective dose of immunosuppressant (ED) was calculated using the following equation: ED=(CCPMdrug exposed well/mean CCPMcontrol wells)×100%. The ED50 value, the drug concentration inhibiting proliferation of 50% of lymphocytes, was calculated from the obtained dose response curves.

p21^WAF-1 = test: p21WAF-1 induction in MCF-7 cells (immunoblot); type: cell-based; details: MCF-7, 0-100 μM 12 hours; 1 μM 0.5-24 hours
Protocol: MCF-7 cells cultured at 37° C. in 5% CO2 atmosphere in DMEM medium supplemented with 10% foetal calf serum were treated with compound 28 concentration ranges of 0-100 μM. Compound 28 was added into the medium from the 100 mM stock solution in DMSO. Cells were harvested 12 hours after incubation with compound 28, centrifuged (1000 rpm, 4° C., 5 min), washed twice by ice-cold PBS and re-centrifuged. These washed cells were then lysed by 1×CSB (loading buffer for SDS-PAGE, i.e. electrophoresis of proteins in polyacrylamide gel containing SDS). Cell lysate proteins were separated by SDS-PAGE and transferred onto a nitrocelulose (NC) membrane. NC membrane was blocked by 5% skimmed milk, 0.1% Tween 20 in PBS. Protein level of p21^WAF-1 and actin (as a loaded protein volume control) were detected immunochemically using commercially available specific monoclonal antibodies anti-p21^WAF-1 (Ab-1, Calbiochem) and anti-Actin (Clone AC-40, Sigma-Aldrich). The primary antibodies bind to target proteins were detected using rabbit secondary peroxidase-labeled antibody (RAM-Px, DAKO), followed by chemiluminiscence (ECL, Amersham-Pharmacia).

## COc1cccc(CNc2ncnc3c2ncn3[C@@H]2O[C@H](COP(=O)(O)O)[C@@H](O)[C@H]2O)c1O [Compound 28, 6-(2-hydroxy-3-methoxybenzylamino)purine riboside-5′-monophosphate]
Human lymphocytes
  Human lymphocytes ED50: 1200 nM
p21^WAF-1
  p21^WAF-1 protein induction: efficient p21^WAF-1 protein induction
